Four molecules from patent US5223178A (priority 1990, dated 1993) can be followed below.

The structures appear in SMILES notation. Values after ≈ are worked out from the molar mass of the structure shown. Read-outs that look alike come from different tables or passages of the source.

One assay concerns Alternaria solani. As to the kind of experiment: PDA plate mycelial radial growth inhibition (paint film mildew fungi), Table 1. It is filed as cell-based. The conditions noted are these: PDA plates, read-out: EC75 (concentration giving 75% control of hyphal growth). As to the method:
(§1) The test was run as follows. Potato dextrose agar (PDA) was dissolved in water (30 g PDA/1) and autoclaved at 15 psi for 15 minutes. PDA was purchased from Difco. Triazoles were dissolved in a small quantity of methanol and added to autoclaved, molten potato dextrose agar in a dilution series to give 0.01, 0.1, 1, 10 and 100 ug ml^-1. Final methanol content of the highest dose was included. The molten agar was pipetted into Petri plates (15 ml per plate) and allowed to set. Two 5 mm mycelial plugs were removed from mother cultures of each of the fungal species tested, and were placed near the edge of the test plates. When colonies were 10-40 mm in diameter, the radial mycelial growth was measured and EC75 values were determined on log-probit paper.
EC75 values (concentration giving 75% control of hyphal growth) are reported.

For the next assay, the system named is Piricularia oryzae. Description: microbe, parasite or virus in culture. In kind it is cell-based. The conditions noted are these: 72 h.
The test system of a further assay is Aureobasidium pullulans. Description: Paint film mildewcide popsickle stick test, Table 6. To be noted: A. pullulans, 10 days, 30° C., 95% RH. As to the method:
(§2) Testing is described below.
(§3) Testing was done in a commercial acrylic-based latex paint with conventional pigments, dispersants, and the like. Texanol (R) is trimethyl-1,3-pentanediol monisobutyrate supplied by Eastman Chemical. "Latex" is a latex of a copolymer of butyl acrylate and methyl methacrylate.
(§4) To a sealable container was charged 100 parts of the paint formulation and the desired triazole concentration. The sample was homogenized for 15 minutes each, then blended and remixed.
(§5) Three triazoles were evaluated for their effectiveness as paint film mildewcides at […] and 10 lbs/100 gallons in a laboratory popsickle stick test. Untreated controls were included in the test.
(§6) Duplicate popsickle sticks painted with the treated and untreated paint sample were inoculated with Aureobasidium pullulans and Aspergillus niger. The sticks were inoculated for 10 days at 30° C. and 95% RH and samples were rated for fungal growth.

Another assay deals with Aspergillus niger. Described as above. The conditions noted are these: A. niger, 10 days, 30° C., 95% RH. As to the method: as §2, §3, §4, §5, §6
A further assay concerns Poria placenta. Description: Wood decay fungi radial growth inhibition on PDA, Table 7. The conditions noted are these: room temperature, read-out: EC50 (concentration giving 50% control of hyphal growth). In kind it is cell-based. Here is the method: (§7) The test was run as follows. Potato dextrose agar (PDA) was dissolved in water (39 g/l) and autoclaved at 15 psi for 15 min. PDA was purchased from Difco. The triazole was dissolved in a small quantity of dimethylsulfoxide (DMSO) and diluted to appropriate concentrations with the same solvent. Ten microliters of the appropriate solution was added to each of five wells of a Falcon 6 well tissue culture dish. To the sixth well was added ten microliters of DMSO as a control. Five ml of molten PDA was then added to each of the wells to give […] μg ml-1 of triazole. The plate was gently agitated to afford a uniform mixture. Upon cooling, the dishes were inoculated with a six mm agar plug from a freshly grown culture of the test organism. The assay plates were then incubated at room temperature and evaluated when the radial growth in the control well had reached approximately 30 mm. The radial growth for the treated wells was measured and the growth inhibition and EC50 values were calculated using non-linear regression analysis. Data are shown in Table 7 for triazoles VIII and IX (Table). EC50 values (concentration giving 50% control of hyphal growth) are reported.

The subject of a further assay is Trametes Versicolor. The description is as above. It is filed as cell-based. The conditions noted are these: room temperature, read-out: EC50 (concentration giving 50% control of hyphal growth). As to the method:
as §7

For a further assay, the system named is Phialophora mutabilis. The description is as above. The conditions noted are these: Coniochaeta mutabilis, room temperature, read-out: EC50 (concentration giving 50% control of hyphal growth). In kind it is cell-based. Here is the method:
as §7

The subject of a further assay is Gloeophyllum tradeum. The description is as above. In kind it is cell-based. The conditions noted are these: read-out: EC50 (concentration giving 50% control of hyphal growth). As to the method:
as §7

In another assay the test system is Aureobasidum pullulans. As to the kind of experiment: PDA plate mycelial radial growth inhibition (paint film mildew fungi), Table 2. In kind it is cell-based. To be noted: read-out: EC50 (concentration giving 50% control of hyphal growth). Here is the method:
as §1
(§8) EC50 values (concentration giving 50% control of hyphal growth) are reported.

The test system of a further assay is Cladisporium resinae. The description is as above. In kind it is cell-based. To be noted: read-out: EC50 (concentration giving 50% control of hyphal growth). Here is the method: as §1, §8
A further assay has as its system Aspergillus flavus. The assay is described as above. To be noted: read-out: EC50 (concentration giving 50% control of hyphal growth). In kind it is cell-based. As to the method:
as §1, §8

Setting [1] is: pH 3.5, read-out: EC90 for mycelial growth.
Where [2] appears, read: pH 4.8, read-out: EC90 for mycelial growth.
Where [3] appears, read: pH 5.4, read-out: EC90 for mycelial growth.
Where [4] appears, read: pH 6.3, read-out: EC90 for mycelial growth.
[5] abbreviates: pH 7.2, read-out: EC90 for mycelial growth.
Where [6] appears, read: pH 7.7, read-out: EC90 for mycelial growth.
[7] abbreviates: pH 8.7, read-out: EC90 for mycelial growth.
[8] abbreviates: pH 9.8, read-out: EC90 for mycelial growth.
Where [9] appears, read: pH 11.2, read-out: EC90 for mycelial growth.

As to `N#CC(CCc1ccc(Cl)cc1)(Cn1cncn1)c1ccccc1` (stereo not drawn) [I, α-[2-(4-chlorophenyl)ethyl]-α-phenyl-1H-1,2,4-triazole-1-propanenitrile], the EC75 in the assay on Alternaria solani amounted to 5 mg/L (≈ 14.8 µM). For the same molecule, the 90% effect concentration (EC90) in the assay on Piricularia oryzae (setting [1]) is 0.5 mg/L (≈ 1.48 µM); in the assay with Piricularia oryzae (setting [2]), 0.1 mg/L (≈ 0.297 µM); in the assay on Piricularia oryzae (setting [3]), 0.1 mg/L (≈ 0.297 µM); with Piricularia oryzae (setting [4]), 0.1 mg/L (≈ 0.297 µM); in the assay with Piricularia oryzae (setting [5]), 0.1 mg/L (≈ 0.297 µM); in the assay on Piricularia oryzae (setting [6]), 0.1 mg/L (≈ 0.297 µM). For the same molecule, the EC90 in the assay with Piricularia oryzae (setting [7]), in the assay with Piricularia oryzae (setting [8]) and in the assay on Piricularia oryzae (setting [9]) was 0.1 mg/L (≈ 0.297 µM) in each case. Moreover, the Fungal growth rating was 2+ in the assay on Aureobasidium pullulans (replicate 1, 1 lbs/100 gal); 2+ in the assay on Aureobasidium pullulans (replicate 2, 1 lbs/100 gal); 4+ with Aspergillus niger (replicate 1, 1 lbs/100 gal); 4+ in the assay on Aspergillus niger (replicate 1, 5 lbs/100 gal); 3+ in the assay on Aspergillus niger (replicate 1, 10 lbs/100 gal); 4+ in the assay on Aspergillus niger (replicate 2, 1 lbs/100 gal). Besides, the Fungal growth rating is listed as 3+ in the assay on Aspergillus niger (replicate 2, 5 lbs/100 gal) and 3+ with Aspergillus niger (replicate 2, 10 lbs/100 gal).

As to `CCCCC(C#N)(Cn1cncn1)c1ccc(Cl)cc1` (stereo not drawn) [II, α-n-butyl-α-4-chlorophenyl-1H-1,2,4-triazole-1-propanenitrile], the EC90 in the assay with Piricularia oryzae (setting [1]) was determined as 5 mg/L (≈ 17.3 µM); with Piricularia oryzae (setting [2]), 4.5 mg/L (≈ 15.6 µM); in the assay on Piricularia oryzae (setting [3]), 4.5 mg/L (≈ 15.6 µM); with Piricularia oryzae (setting [4]), 4.5 mg/L (≈ 15.6 µM); with Piricularia oryzae (setting [5]), 4.5 mg/L (≈ 15.6 µM); in the assay on Piricularia oryzae (setting [6]) it was 4.5 mg/L (≈ 15.6 µM). Moreover, the figures for the 90% effect concentration (EC90) in the assay on Piricularia oryzae (setting [7]), with Piricularia oryzae (setting [8]) and in the assay with Piricularia oryzae (setting [9]) were 5 mg/L (≈ 17.3 µM), 4.5 mg/L (≈ 15.6 µM) and 4.5 mg/L (≈ 15.6 µM), respectively. Besides, the Fungal growth rating in the assay with Aureobasidium pullulans (replicate 1, 1 lbs/100 gal) is 3+; in the assay on Aureobasidium pullulans (replicate 1, 5 lbs/100 gal) it was 2+; in the assay on Aureobasidium pullulans (replicate 1, 10 lbs/100 gal) it was 2+; in the assay on Aureobasidium pullulans (replicate 2, 1 lbs/100 gal), 4+; in the assay with Aureobasidium pullulans (replicate 2, 5 lbs/100 gal), 2+; in the assay on Aureobasidium pullulans (replicate 2, 10 lbs/100 gal), 1+. Moreover, the Fungal growth rating was 3+ with Aspergillus niger (replicate 1, 1 lbs/100 gal); 2+ in the assay with Aspergillus niger (replicate 1, 5 lbs/100 gal); 1+ with Aspergillus niger (replicate 1, 10 lbs/100 gal); 2+ in the assay on Aspergillus niger (replicate 2, 1 lbs/100 gal).

Regarding `CCCCC(C#N)(Cn1cncn1)c1ccc(Cl)cc1` (stereo not drawn) [Structure IX, α-n-butyl-α-4-chlorophenyl-1H-1,2,4-triazole-1-propanenitrile], the EC50 with Poria placenta is 0.228 mg/L (≈ 0.79 µM); in the assay on Trametes Versicolor, 0.118 mg/L (≈ 0.409 µM); in the assay with Phialophora mutabilis, 1.45 mg/L (≈ 5.01 µM); in the assay with Gloeophyllum tradeum, 0.313 mg/L (≈ 1.08 µM); with Aureobasidum pullulans, 0.5 mg/L (≈ 1.73 µM); in the assay on Cladisporium resinae it was 1.7 mg/L (≈ 5.89 µM). Further, the EC50 in the assay with Aspergillus flavus is 1.2 mg/L (≈ 4.16 µM).

As to `N#CC(CCc1ccc(Cl)cc1)(Cn1cncn1)c1ccccc1` (stereo not drawn) [Structure VIII, α-[2-(4-chlorophenyl)ethyl]-α-phenyl-1H-1,2,4-triazole-1-propanenitrile], the EC50 in the assay with Poria placenta was 0.175 mg/L (≈ 0.52 µM); in the assay with Trametes Versicolor, 0.061 mg/L (≈ 0.181 µM); in the assay with Phialophora mutabilis, 0.612 mg/L (≈ 1.82 µM); in the assay on Gloeophyllum tradeum, 0.158 mg/L (≈ 0.469 µM); with Cladisporium resinae, 0.025 mg/L (≈ 0.0742 µM); with Aspergillus flavus, 3.5 mg/L (≈ 10.4 µM).

Broadly, the EC90 is the concentration at which the effect reaches the 90% level.
